# Source: patent US10137141B2, “Treatment regimen tiacumicin compound” (priority 2014, dated 2018)
# Entries after “also recorded” stand apart in the source; their conditions may differ. Where two headings read alike, the source gives them in different places.
# What was measured:
# Bifidobacteria [1] = experiment: In vitro gut model: gut microflora by selective culture, Bifidobacteria; assay type: cell-based
# Procedure: (§1) Two 3-stage chemostat gut models were inoculated with pooled faeces (n=5). […] Models were then treated with fidaxomicin (200 mg/L bd) for 20 or 5 d to achieve in vivo gut levels. 5 days post treatment in the short course model, a further 5 days fidaxomicin pulse was given. CD total viable counts (TVC), spore counts (SP), toxin titres (CYT), and gut bacteria were measured throughout. Data were also compared with results for FDX given for 7 days (model 7).
# Two tests in a validated three-stage compound continuous culture system (Freeman J, O'Neill F J, Wilcox M H. The effects of cefotaxime and desacetylcefotaxime upon Clostridium difficile proliferation and toxin production in a triple-stage chemostat model of the human gut. J Antimicrob Chemother 2003; 52: 96-102; Baines S D, Freeman J, Wilcox M H. Effects of piperacillin/tazobactam on Clostridium difficile growth and toxin production in a human gut model. J Antimicrob Chemother 2005; 55: 974-82) were run in parallel. […]
# (§2) The continuous culture system consisted of three vessels, V1, V2, and V3, with respective operating volumes of 0.22, 0.32, and 0.32 L (FIG. 1). […] Retention time was calculated as the reciprocal of dilution rate. […] Minimum doubling times of bacteria were calculated as 0.693/D, where D is the dilution rate (h−1) for each culture vessel. […] Steady-state conditions were assessed by monitoring short-chain fatty acid (SCFA) formation. […]
# [2] = tested on: C. difficile PCR ribotype 027; settings: cited from earlier work
# [3] = oral administration; cited from earlier work
# Clostridium species = settings: in vitro; cited from earlier work
# [4] = tested on: C. difficile PCR ribotype 027; experiment: In vitro gut model of CDI (three-stage chemostat): C. difficile viable counts, spore counts, cytotoxin titre; assay type: cell-based, Clostridium difficile; settings: both tapered dosing regimens (Model C and D)
# Procedure: as §1, with “Models were then treated with fidaxomicin (200 mg/L bd) for 20 or 5 d to achieve in vivo gut levels.” left out
# (§3) Two tests in a validated three-stage compound continuous culture system (Freeman J, O'Neill F J, Wilcox M H. The effects of cefotaxime and desacetylcefotaxime upon Clostridium difficile proliferation and toxin production in a triple-stage chemostat model of the human gut. J Antimicrob Chemother 2003; 52: 96-102; Baines S D, Freeman J, Wilcox M H. Effects of piperacillin/tazobactam on Clostridium difficile growth and toxin production in a human gut model. J Antimicrob Chemother 2005; 55: 974-82) were run in parallel. Models were inoculated with pooled faecal slurry (10% in anaerobic distilled water) from healthy volunteers (n=5, age >60 yrs).
# The continuous culture system consisted of three vessels, V1, V2, and V3, with respective operating volumes of 0.22, 0.32, and 0.32 L (FIG. 1). Temperature (37° C.) and pH were automatically controlled to reflect the proximal-distal colon. Culture pH in the three vessels was 5.5, 6.2, and 6.8, respectively. Each fermentor was magnetically stirred and maintained under an atmosphere of CO2. The growth medium was continuously sparged with O2-free N2 and fed by peristaltic pump to V1. V1 sequentially supplied V2 and V3 via a series of weirs. The culture medium consisted of the following constituents (g liter-1) in distilled water: starch (BDH Ltd.), 5.0; pectin (citrus), 2.0; guar gum, 1.0; mucin (porcine gastric type III), 4.0; xylan (oatspelt), 2.0; arabinogalactan (larch wood), 2.0; inulin, 1.0; casein (BDH Ltd.), 3.0; peptone water, 5.0; tryptone, 5.0; bile salts No. 3, 0.4; yeast extract, 4.5; FeSO4 z 7H2O, 0.005; NaCl, 4.5; KCl, 4.5; KH2PO4, 0.5; MgSO4 z 7H2O, 1.25; CaCl2 z 6H2O, 0.15; NaHCO3, 1.5; cysteine, 0.8; hemin, 0.05; Tween 80, 1.0 The system was initially operated at a retention time (R) of 27.1 h (experiment 1), followed by an increase to R=66.7 h (experiment 2). Retention time was calculated as the reciprocal of dilution rate. System retention constitutes the sum of individual R values in each fermentor. Minimum doubling times of bacteria were calculated as 0.693/D, where D is the dilution rate (h−1) for each culture vessel. Each fermentor was inoculated with 100 ml of a fresh 10% (w/v) fecal slurry from a healthy, nonmethane producing donor. […] Steady-state conditions were assessed by monitoring short-chain fatty acid (SCFA) formation. […]
# enterococci = experiment: In vitro gut model: gut microflora by selective culture, enterococci; assay type: cell-based; settings: both dosing regimens (Model C and D)
# Text: as §3
# as §2, with “1). Temperature (37° C.) and pH were automatically controlled to reflect the proximal-distal colon. Culture pH in the three vessels was 5.5, 6.2, and 6.8, respectively. Each fermentor was magnetically stirred and maintained under an atmosphere of CO2.” for “1).”
# CDI [5] = experiment: Expected clinical outcome of the new dosing regimens (proposed clinical study); assay type: in vivo, patients; settings: expected benefit of the dosing regimens of the invention
# [6] = tested on: C. difficile infections (CDI); settings: cited from earlier work
# [7] = some previous fidaxomicin dosing regimens; cited from earlier work
# [8] = Antimicrobial concentration (bioassay) in the in vitro gut model
# Procedure: The continuous culture system consisted of three vessels, V1, V2, and V3, with respective operating volumes of 0.22, 0.32, and 0.32 L (FIG. 1). Temperature (37° C.) and pH were automatically controlled to reflect the proximal-distal colon. Culture pH in the three vessels was 5.5, 6.2, and 6.8, respectively. Each fermentor was magnetically stirred and maintained under an atmosphere of CO2. The growth medium was continuously sparged with O2-free N2 and fed by peristaltic pump to V1. V1 sequentially supplied V2 and V3 via a series of weirs. […] Retention time was calculated as the reciprocal of dilution rate. […] Minimum doubling times of bacteria were calculated as 0.693/D, where D is the dilution rate (h−1) for each culture vessel. […] Steady-state conditions were assessed by monitoring short-chain fatty acid (SCFA) formation. […]
# [9] = low solubility, low permeability; cited from earlier work
# CDI [10] = settings: two Phase III trials; cited from earlier work
# Bifidobacteria [11] = settings: both dosing regimens (Model A and Model B); cited from earlier work
# C. difficile = experiment: MIC against C. difficile; assay type: cell-based, Clostridium difficile; settings: Clostridioides difficile
# [12] = Model A: fidaxomicin 200 mg/L bd for 20 d
smiles,measurement,setting,value
"CCc1c(Cl)c(O)c(Cl)c(O)c1C(=O)O[C@H]1[C@H](O)[C@H](OC)[C@H](OC/C2=C\C=C\C[C@H](O)/C(C)=C/[C@H](CC)[C@@H](O[C@@H]3OC(C)(C)[C@@H](OC(=O)C(C)C)[C@H](O)[C@@H]3O)/C(C)=C/C(C)=C/C[C@@H]([C@@H](C)O)OC2=O)O[C@@H]1C [fidaxomicin, 3-[[[6-deoxy-4-O-(3,5-dichloro-2-ethyl-4,6-dihydroxybenzoyl)-2-O-methyl-β-D-mannopyranosyl]oxy]methyl]-12(R)-[[6-deoxy-5-C-methyl-4-O-(2-methyl-1-oxopropyl)-β-D-lyxo-hexopyranosyl]oxy]-11(S)-ethyl-8(S)-hydroxy-18(S)-(1(R)-hydroxyethyl)-9,13,15-trimethyloxacyclooctadeca-3,5,9,13,15-pentaene-2-one]",Declines in Bifidobacteria to limit of detection,Bifidobacteria [1]; both dosing regimens (Model C and D),6-8 log10 cfu/mL
same,Recovery of Bifidobacteria populations,"Bifidobacteria [1]; both models (C and D), by the end of the experiment",recovered to near pre-installation counts; also recorded: recovered to close to pre-fidaxomicin levels
same,CD TVC reduced to the limit of detection (LOD) by day,[2]; [12],≤ 5 days
same,CYT (toxin titre) reduced to the limit of detection (LOD) by day,[2]; [12],≤ 7 days
same,Reduction of CD TVCs,"[2]; Model B: 200 mg/L bd 5 d, still detectable on day 5 of treatment",~4 log10 cfu/mL
same,TVC and SP after second 5 days fidaxomicin pulse,"[2]; Model B: 5 d, 5 d rest, further 5 d pulse",decreased TVC and SP to LOD
same,Absorption from the intestinal tract,[3],poorly absorbed
same,MIC values compared with optically pure S-isomer of tiacumicin B and other tiacumicin related compounds,Clostridium species,lower MIC values
same,Reduction of C. difficile viable counts to below the level of detection,[4],~6 log10 cfu/mL
same,Reduction of spore counts to below the level of detection,[4],~4 log10 cfu/mL
same,Reduction of toxin titres to below the level of detection,[4],3 RU
same,"Time to reduce C. difficile viable counts, spore counts and toxin titres to below the level of detection",[4],< 3 days
same,Declines in enterococci,enterococci,2-5 log10 cfu/mL
same,Recurrence,CDI [5],below 5%
same,Courses resulting in treatment success,"[6]; 18 courses of fidaxomicin in 14 patients (FID-TX, FID-CH, FID-TP)",18 courses
same,RCDI,"[6]; FID-CH: 10-day fidaxomicin chaser, 8 courses, excluding RCDI due to antimicrobial exposure",25%
same,Average symptom-free interval (SFI),[6]; FID-CH,240 days
same,RCDI,"[6]; FID-TP: taper 200 mg daily 7 days then 200 mg QOD 7-26 days, 7 courses",no RCDI
same,Average symptom-free interval (SFI),[6]; FID-TP,150 days
same,RCDI episodes,"[6]; FID-TX: 200 mg BID for 10 days, 3 courses",66%
same,Average symptom-free interval (SFI),[6]; FID-TX,73 days
same,Persistence of fidaxomicin,[7],20 mg/L
same,Persistence of fidaxomicin at supra MIC level,[8]; dosing regimens i and ii,2 to 5 µg/mL
same,Peak fidaxomicin concentration,[8]; human,~100 mg/L
same,BCS (Biopharmaceutics Classification System) class,[9],Class IV
same,Initial clinical cure of CDI versus vancomycin,CDI [10],non-inferiority
same,Reduction of recurrence and sustained clinical response versus vancomycin,CDI [10],superiority
same,Decrease of bifidobacteria to below LOD,Bifidobacteria [11],6-8 log10 cfu/mL
same,Recovery of bifidobacteria,Bifidobacteria [11],did not recover
same,MIC,C. difficile,0.25 µg/mL
CN[C@H](CC(C)C)C(=O)N[C@H]1C(=O)N[C@@H](CC(N)=O)C(=O)N[C@H]2C(=O)N[C@H]3C(=O)N[C@H](C(=O)N[C@H](C(=O)O)c4cc(O)cc(O)c4-c4cc3ccc4O)[C@H](O)c3ccc(c(Cl)c3)Oc3cc2cc(c3O[C@@H]2O[C@H](CO)[C@@H](O)[C@H](O)[C@H]2O[C@H]2C[C@](C)(N)[C@H](O)[C@H](C)O2)Oc2ccc(cc2Cl)[C@H]1O [vancomycin],Average symptom-free interval (SFI),[6]; following a vancomycin taper,37 days
